These results are taken from patent US4017534A, “16-Fluoro-11-deoxy-13-dihydro-prostaglandin” (American Cyanamid Company, priority 1975, dated 1977).

The test system of data set [1] is bronchospasms elicited by histamine. Nature of the data set: Bronchodilator activity (intraduodenal route) against histamine. Format: in vivo, guinea pigs. To be noted: intraduodenal dose 10 mg./kg. Further details: key: 0: no activity; +: minimal activity; ++++: maximum activity. The procedure:
(§1) The compounds of this invention are useful as bronchodilators for the treatment of asthma and chronic bronchitis. Bronchodilator activity is determined in guinea pigs against bronchospasms elicited by intravenous injections of 5-hydroxytryptamine, histamine or acetylcholine by the Konzett procedure. [See J. Lulling, P. Lievens, F. El Sayed and J. Prignot, Arzneimittel-Forschung, 18, 995 (1968).]
(§2) In Table A' which follows bronchodilator activity for representative compounds of this invention against one or more of three spasmogenic agents is reported. In this assay candidate compounds are suspended in 10% gum arabic solution and the suspension is administered by the intraduodenal route. The activity of the compound at any one dose is then investigated throughout the following hour (see above-cited reference, J. Lulling et al.). Potency is then reported as O, +, ++, +++, or ++++, wherein 0 represents no activity, + minimal activity and ++++ maximum activity.

In data set [2] the test system is basal gastric acid secretion. Put plainly: Inhibition of total acid output in the acute gastric fistula rat. The conditions noted are these: for ED50: Rattus norvegicus. It is filed as in vivo, Female Sprague-Dawley rats. The procedure:
The compounds of this invention are also useful as inhibitors of gastric acid secretion and peptic ulcer formation and may be used for the treatment of gastric hyperacidity, gastric erosion, and peptic ulcer. Inhibition of basal gastric acid secretion can be determined by the following procedure.
Female Sprague-Dawley rats weighting 140-160 grams are fasted in individual cages for 18-24 hours. The rats are then lightly anesthetized with ether and their front teeth extracted to avoid destruction of the plastic cannula. A midline incision is then made and the stomach and duodenum exposed. A flanged polyvinyl tube is inserted into the fundic portion of the stomach and secured with a purse string suture line using 4-O Mersilene. The rat is then dosed by injection of the compound into the duodenum (1.0 ml. per 100 gram body weight). After dosing, the abdominal wall and skin are closed using metal wound clips. The rate is replaced in a cage containing a longitudinal slit to allow the polyvinyl tube to hang freely. An 8 ml. plastic collecting tube is attached to the flanged cannula and hangs freely below the cage. The first 30 minute sample is discarded designating this time as zero. The collecting tube is attached again and samples removed at the end of 60 and 120 minutes. These samples are referred to as "A" and "B" in the table. The hourly samples are then transferred to a 15 ml. centrifuge and centrifuged for 5-10 minutes. Total and sediment volume are then recorded with the supernatent volume being used as volume of secretion. A 1 ml. or less aliquot is then removed and placed in a 50 ml. beaker containing 10 ml. of distilled water. This sample is then titrated using 0.01N NaOH to pH 7.0 using a Beckman zeromatic pH meter. Volume, titratable acidity (meg.L) and total acid output (μeg/hour) are recorded. Percent inhibition is determined by comparison with the appropriate control. Groups of three rats were used for preliminary testing, and groups of six rats were used for dose-response evaluations. All compounds are administered in a vehicle consisting of 0.5% methocel, 0.4% tween 80, and saline at a constant volume of 1 ml./100 gram rat. Samples are dispersed by sonification. Percent inhibition is calculated on basis of concurrent vehicle control.
In Table B which follows is given the effect on total acid output after 120 minutes of a 10 mg./kg. dose of representative ketals of this invention. For comparison the result obtained with the corresponding 9-oxo derivative, l 9-oxo-15(S)-hydroxyprostanoic acid is included.
Dose response evaluation in the acute gastric fistual rat assay further illustrates the pronounced advantage of the novel ketals of this invention as gastric acid secretion inhibitors relative to the corresponding 9-oxo derivative.

The subject of data set [3] is bronchospasms elicited by 5-hydroxytryptamine. Nature of the data set: Bronchodilator activity (intraduodenal route) against 5-hydroxytryptamine. Further details: key: 0: no activity; +: minimal activity; ++++: maximum activity. Format: in vivo, guinea pigs. The procedure: as §1, §2
For data set [4], the system named is bronchoconstriction induced by administration of pilocarpine. Nature of the data set: Bronchodilator activity by aerosol in dogs. To be noted: aerosol concentration 0.032%. Format: in vivo. The procedure:
(§3) The novel ketals of this invention also show bronchodilator activity when administered by aerosol to dogs wherein bronchoconstriction was induced by administration of pilocarpine. […] This is very important since coughing is one of the damaging side effects reported in the literature when prostaglandin aerosols are administered to human subjects. [See Y. Kawakami et al., European Journal Clinical Pharmacology, 6, 127 (1973); M. F. Cuthbert, Brit. Med. Journ. 723 (Dec. 20, 1969); H. Herxheimer and I. Roetscher, European Journal Clinical Pharmacology, 3, 123 (1971).]

A further data set concerns cough. Nature of the data set: Cough induction by aerosol in human. It is filed as in vivo. The procedure: as §3
The subject of the next data set is gastric acid secretion. Put plainly: Gastric acid secretion inhibition, Shay-rat procedure. It is filed as in vivo, rats (male, CFE strain). The conditions noted are these: intraduodenal dose 100 mg./kg. of body weight. The procedure:
Gastric acid secretion inhibition can also be observed in an assay wherein acid secretion is stimulated as in the well-known "Shay-rat" procedure, which is carried out in the following manner.
The rats (male, CFE strain) were starved for 48 hours (water was given ad libitum) to permit evacuation of stomach contents. On the morning of the experiment, under ether anesthesia, the abdominal region was shaved and a midline incision (1-11/2 inch) was made with a scapel. With the help of a closed curved hemostat the duodenum was picked up. […]
The abdominal cavity was exposed by cutting with scissors and the esophagus close to the stomach was clamped off with a hemostat, the stomach was removed by cutting above the hemostat (the esophagus was cut) and between the two sutures. […] The supernatant was collected, volume measured and recorded, 2 drops of a phenolphthalein indicator (1% in 95% ethanol) were added and the solution was tritrated with 0.02N NaOH (or with 0.04N NaOH when large volumes of stomach contents were encountered) to pH 8.4 (because of usual coloring of the stomach contents, phenolphthalein was only used to permit visual indication that the end point was near) and the amount of acid present was calculated. […]

In data set [5] the test system is bronchospasms elicited by intravenous injections of 5-hydroxytryptamine. Nature of the data set: Bronchodilator activity (Konzett assay, intravenous) against 5-hydroxytryptamine. The conditions noted are these: Cavia porcellus, guinea pig, spasmogen 5-hydroxytryptamine, read-out: Bronchodilator Activity (Konzett Assays) ED50, 5-hydroxytryptamine. It is filed as in vivo, guinea pigs. The procedure:
as §1
(§4) In Table A which follows bronchodilator activity for representative compounds of this invention against one or more of three spasmogenic agents is expressed as an ED50 determined from the results obtained with three logarithmic cumulative intravenous doses.

Data set [6] has as its system bronchospasms elicited by intravenous injections of acetylcholine. Put plainly: Bronchodilator activity (Konzett assay, intravenous) against acetylcholine. Format: in vivo, guinea pigs. The conditions noted are these: Cavia porcellus, guinea pig, spasmogen acetylcholine, read-out: Bronchodilator Activity (Konzett Assays) ED50, acetylcholine. The procedure:
as §1, §4

[7] abbreviates: 2 h, 10 mg./kg., intraduodenal route, rat, read-out: %-Inhibition of Total Acid Output After 120 Minutes.
Setting [8] is: Table C, intraduodenal route, 1 hr. collection, read-out: ED50, 1 hr. collection (A).
Where [9] appears, read: Table C, intraduodenal route, 2 hr. collection, read-out: ED50, 2 hr. collection (B).

Read-outs that look alike come from different tables or passages of the source.

As to `CCCCC[C@@H](CC[C@H]1CCC2(OCC(CCl)O2)[C@@H]1CCCCCCC(=O)OC)OC(C)=O` (stereo partly drawn) [l methyl-9,9-(1-chloromethylethylenedioxy)-15(S)-acetoxy-prostanoate], the “Bronchodilator potency, Spasmogenic Agent Histamine” value in data set [1] is recorded as “+”. Besides, the inhibition in vivo at 10 mg/kg in data set [2] (setting [7]) was determined as 26%.

On to `CCCCC[C@H](O)CC[C@H]1CCC2(OCCS2)[C@@H]1CCCCCCC(=O)O` (stereo partly drawn) [l-9,9-(ethyleneoxythia)-15(S)-hydroxy-prostanoic acid], for which, in data set [1], the “Bronchodilator potency, Spasmogenic Agent Histamine” value is “+”. Besides, in data set [2] (setting [7]), the inhibition in vivo at 10 mg/kg worked out at 39%.

On to `CCCCC[C@@H](CC[C@H]1CCC2(OCCCO2)[C@@H]1CCCCCCC(=O)OC)OC(C)=O` [l methyl 9,9-(1,3-propylenedioxy)-15(S)-acetoxy-prostanoate], for which, in data set [1], the “Bronchodilator potency, Spasmogenic Agent Histamine” value is given as “+”. For the same molecule, the inhibition in vivo at 10 mg/kg in data set [2] (setting [7]) amounted to 60%. In addition, the 50% effective dose (ED50) in data set [2] (setting [8]) and in data set [2] (setting [9]) was 6 mg/kg in each case.

In the case of `CCCCC[C@@H](CC[C@H]1CCC2(OCC(C)O2)[C@@H]1CCCCCCC(=O)OC)OC(C)=O` (stereo partly drawn) [l methyl 9,9-(1-methylethylenedioxy)-15(S)-acetoxyprostanoate], the “Bronchodilator potency, Spasmogenic Agent 5-Hydroxytryptamine” value in data set [3] (intraduodenal dose 10 mg./kg.) is on record as “+”.

As to `CCCCC[C@H](O)CC[C@H]1CCC(=O)[C@@H]1CCCCCCC(=O)O` [l 9-oxo-15(S)-hydroxyprostanoic acid, 1-15(S)-hydroxy-9-oxo-prostanoic acid, reference compound], the “bronchodilator activity by aerosol” value in data set [4] is reported as “very weak”. In addition, the “induction of cough by aerosol” value with cough is listed as “ketone aerosol does”. In data set [2] (2 h, 12.5 mg./kg. dose, intraduodenal route, rat, read-out: %-Inhibition of Total Acid Output After 120 Minutes), the inhibition in vivo at 12.5 mg/kg turned out to be 27%. For the same molecule, the ED50 in data set [2] (setting [8]) is 18 mg/kg; in data set [2] (setting [9]), greater than 25 mg/kg. For the same molecule, the “potency relative to the ketals” value in data set [2] (total acid output, Table B) is given as “significantly less potent than the ketals”.

With `CCCCC[C@H](O)CC[C@H]1CCC2(OC(C)C(C)O2)[C@@H]1CCCCCCC(=O)O` (stereo partly drawn) [l-9,9-(1,2-dimethylethylenedioxy)-15(S)-hydroxy-prostanoic acid], the “Bronchodilator potency, Spasmogenic Agent Histamine” value in data set [1] is recorded as “+”. Moreover, in data set [2] (setting [7]), the inhibition in vivo at 10 mg/kg was 57%. Further, the ED50 was less than 8 mg/kg in data set [2] (setting [8]) and 8 mg/kg in data set [2] (setting [9]).

Consider “l methyl 9,9-(2,2-dimethyl-1,3-propylenedioxy)-15(S)-acetoxy-prostenoate”, for which the “%-Inhibition of Total Acid Output After 120 Minutes” value in data set [2] (10 mg./kg., intraduodenal route, rat) was found to be 27%.

Consider `CCCCC[C@@H](CC[C@H]1CCC2(OC(C)C(C)O2)[C@@H]1CCCCCCC(=O)OC)OC(C)=O` (stereo partly drawn) [l methyl 9,9-(1,2-dimethylethylenedioxy)-15(S)-acetoxyprostanoate], for which the inhibition in vivo at 10 mg/kg in data set [2] (setting [7]) was 74%. Moreover, the ED50 in data set [2] (setting [8]) and in data set [2] (setting [9]) was 7 mg/kg in each case.

In the case of `CCCCCC(O)CCC1CCC2(OCCO2)C1CCCCCCC(=O)O` (racemic) [9,9-(ethylenedioxy)-15-hydroxy-prostanoic acid], the “Percent Inhibition (gastric acid secretion, Shay rat)” value in the data set with gastric acid secretion is recorded as 56%.

As for `CCCCC[C@H](O)CC[C@H]1CCC2(OCC(CCl)O2)[C@@H]1CCCCCCC(=O)O` (stereo partly drawn) [l-9,9-(1-chloromethylethylenedioxy)-15(S)-hydroxy-prostanoic acid], the “Bronchodilator potency, Spasmogenic Agent 5-Hydroxytryptamine” value in data set [3] (intraduodenal dose 3.2 mg./kg.) is “++++”. Also, the inhibition in vivo at 10 mg/kg in data set [2] (setting [7]) is 99%. The ED50 in data set [2] (setting [8]) and in data set [2] (setting [9]) was 6 mg/kg each time.

As to `CCCCC[C@H](O)CC[C@H]1CCC2(OCC(C)O2)[C@@H]1CCCCCCC(=O)O` (stereo partly drawn) [l-15(S)-hydroxy-9,9-(1-methylethylenedioxy)-prostanoic acid], the ED50 was found to be 0.000104 mg/kg in data set [5] and 0.000644 mg/kg in data set [6]. The inhibition in vivo at 10 mg/kg in data set [2] (setting [7]) was determined as 61%.

In the case of `CCCCC[C@@H](CC[C@H]1CCC2(OCCO2)[C@@H]1CCCCCCC(=O)OC)OC(C)=O` [l methyl 9,9-ethylenedioxy-15(S)-acetoxy-prostanoate], the inhibition in vivo at 10 mg/kg in data set [2] (setting [7]) came to 100%. For the same molecule, the ED50 turned out to be 3 mg/kg in data set [2] (2 h, Table B, intraduodenal route, after 120 minutes, read-out: ED50 (inhibition of total acid output)) and 3 mg/kg in data set [2] (setting [9]).

As for `CCCCC[C@H](O)CC[C@H]1CCC2(OCC(C)(C)CO2)[C@@H]1CCCCCCC(=O)O` [9,9-(2,2-dimethylpropylenedioxy)-15(S)-hydroxy-prostanoic acid], in data set [3] (intraduodenal dose 10 mg./kg.), the “Bronchodilator potency, Spasmogenic Agent 5-Hydroxytryptamine” value was “+”. For the same molecule, the “Bronchodilator potency, Spasmogenic Agent Histamine” value in data set [1] is “+”. The inhibition in vivo at 10 mg/kg in data set [2] (setting [7]) was determined as 32%.

For the molecule `CCCCC[C@@H](CC[C@H]1CCC2(SCCS2)[C@@H]1CCCCCCC(=O)OC)OC(C)=O` [l methyl 9,9-ethylenedithia-15(S)-acetoxy-prostanoate], in data set [2] (setting [7]), the inhibition in vivo at 10 mg/kg was determined as 32%.

The ED50 is the midpoint of the dose-response relation.
